The text below walks through data of PubChem BioAssay (NCI).

Structures are written as SMILES. Where “and” joins values, the source holds several entries; their conditions need not be identical. Identical values can stand only once.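 Five compound concentrations were applied to cells in 96-well plates for 48 hours; endpoints were derived by simple linear interpolation of the resulting dose-response curve. At the GI50, growth is halved. TGI marks complete inhibition of growth.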 Bounds are passed on as bounds.

Test systems include COLO 205 colon; HCT-15 colon; MCF7 breast; NCI-H522 lung; PC-3 prostate; RPMI-8226 leukemia; RXF 393 renal; SF-268 CNS; SK-MEL-5 melanoma; T-47D breast; BT-549 breast.
What all share (assay): growth of human tumour cells (NCI), 48 h

Consider `OC1NC2CC3NC(O)C(O)NC3CC2NC1O` (stereo not drawn), for which the TGI in the assay with COLO 205 colon, in the assay with HCT-15 colon, with MCF7 breast, in the assay with NCI-H522 lung, with PC-3 prostate and with RPMI-8226 leukemia was above 100 µM each time. The TGI in the assay on RXF 393 renal, in the assay with SF-268 CNS, with SK-MEL-5 melanoma and in the assay on T-47D breast was above 100 µM throughout.

For the molecule `COc1ccc(CCNC(=S)/N=C\C2=C(O)c3ccccc3C2=O)cc1OC`, the TGI in the assay on COLO 205 colon, in the assay with HCT-15 colon, in the assay with MCF7 breast, with NCI-H522 lung, with PC-3 prostate and in the assay with RPMI-8226 leukemia was above 100 µM in each case. The TGI in the assay with RXF 393 renal, with SF-268 CNS, in the assay on SK-MEL-5 melanoma and in the assay with T-47D breast was above 100 µM throughout.

For the molecule `CCOC(=O)/C(=C\NC#N)c1nc2ccccc2[nH]1`, the TGI in the assay on BT-549 breast, with COLO 205 colon, in the assay with HCT-15 colon, with MCF7 breast, in the assay on NCI-H522 lung and with RPMI-8226 leukemia was above 100 µM throughout. The TGI in the assay on RXF 393 renal, with SF-268 CNS and with SK-MEL-5 melanoma was above 100 µM each time.

As for `Cc1ccc(C(=O)/C=C/N2CCN(c3cccc(C(F)(F)F)c3)CC2)cc1`, the TGI was 72 µM in the assay with COLO 205 colon; 29.5 µM with HCT-15 colon; 34 µM with MCF7 breast; 35.4 µM in the assay with NCI-H522 lung; above 100 µM in the assay with PC-3 prostate; above 100 µM in the assay on RPMI-8226 leukemia. The TGI with RXF 393 renal stood at 33.1 µM; with SF-268 CNS it was 36.8 µM; in the assay with SK-MEL-5 melanoma it was 29.2 µM; in the assay with T-47D breast, 76.5 µM.

In the case of `CN1CCN(c2ccc3nc(-c4ccc5nc(-c6ccc(N(C)CCCl)cc6)[nH]c5c4)[nH]c3c2)CC1`, the TGI amounted to 0.341 µM with COLO 205 colon; 26.1 µM with HCT-15 colon; 0.56 µM in the assay with MCF7 breast; 0.0365 µM in the assay on NCI-H522 lung; 0.383 µM in the assay on PC-3 prostate; 16.5 µM with RPMI-8226 leukemia. Further, the TGI turned out to be 0.501 µM in the assay on RXF 393 renal, 11 µM with SF-268 CNS and 0.517 µM in the assay with SK-MEL-5 melanoma.

As for `CC(=O)C1C(=O)C(=O)N(c2ccc([N+](=O)[O-])cc2Cl)C1=O` (stereo not drawn), the TGI in the assay with BT-549 breast, with COLO 205 colon, with HCT-15 colon, with MCF7 breast, in the assay on NCI-H522 lung and in the assay with PC-3 prostate was above 100 µM throughout. Moreover, the TGI with RXF 393 renal, in the assay on SF-268 CNS and in the assay on SK-MEL-5 melanoma was above 100 µM in each case.

In the case of `CC1(C)N=C(/C(C#N)=[N+](/[O-])C(=O)c2ccccc2)C(C)(C)N1O`, the TGI in the assay with COLO 205 colon, in the assay on HCT-15 colon, with MCF7 breast, in the assay with PC-3 prostate, in the assay with RPMI-8226 leukemia and in the assay with RXF 393 renal was above 100 µM in each case. Besides, the TGI in the assay with SF-268 CNS, in the assay on SK-MEL-5 melanoma and in the assay on T-47D breast was above 100 µM each time.

Regarding `COc1ccc(-c2c(C(C)=O)c(-c3ccccc3)n(C3OC(COC(C)=O)C(OC(C)=O)C(OC(C)=O)C3OC(C)=O)c(=S)c2C#N)cc1O` (stereo not drawn), the TGI with BT-549 breast was 72.2 µM; in the assay with COLO 205 colon, 57.5 µM and > 100 µM; in the assay with HCT-15 colon it was above 100 µM; in the assay on MCF7 breast, above 100 µM; in the assay with NCI-H522 lung, 35.9 µM and 47.7 µM; in the assay with PC-3 prostate, above 100 µM. Also, the TGI with RPMI-8226 leukemia is 61.3 µM and > 100 µM; with RXF 393 renal it was above 100 µM; in the assay on SF-268 CNS, above 100 µM; with SK-MEL-5 melanoma, above 100 µM. Further, the GI50 in the assay with COLO 205 colon was 21 µM and 47.7 µM; in the assay with RPMI-8226 leukemia, 11.3 µM and 47.5 µM; in the assay on SF-268 CNS, 32.6 µM and 76.2 µM.

As to `COc1ccc(CCN2CCOCC2)cc1`, the TGI in the assay on COLO 205 colon, in the assay with HCT-15 colon, in the assay on MCF7 breast, with NCI-H522 lung, in the assay on PC-3 prostate and in the assay with RPMI-8226 leukemia was above 100 µM each time. Further, the TGI in the assay with RXF 393 renal, in the assay on SF-268 CNS, with SK-MEL-5 melanoma and with T-47D breast was above 100 µM in each case.

Regarding `FC(F)(F)c1nc2cc(SSc3cc4nc(C(F)(F)F)[nH]c4cc3Cl)c(Cl)cc2[nH]1`, the TGI in the assay with BT-549 breast, with COLO 205 colon, with HCT-15 colon, with MCF7 breast, with NCI-H522 lung and in the assay on PC-3 prostate was above 100 µM in each case. Further, the TGI with RPMI-8226 leukemia, in the assay with RXF 393 renal, with SF-268 CNS and in the assay with SK-MEL-5 melanoma was above 100 µM throughout.

For `CCCCCCCCCCOC1C(C(C)OCCCN(C)C)OC2OC3(CCCCC3)OC21` (stereo not drawn), the TGI in the assay with COLO 205 colon turned out to be 14.6 µM; in the assay with HCT-15 colon it was 17.5 µM; with MCF7 breast, 42.8 µM; in the assay with NCI-H522 lung it was 34 µM; with PC-3 prostate, 25.2 µM; with RPMI-8226 leukemia it was 17.4 µM. In addition, the TGI in the assay on RXF 393 renal stood at 31 µM; with SF-268 CNS, 30.5 µM; with SK-MEL-5 melanoma, 29.5 µM; with T-47D breast, 35.7 µM.

Take `Cc1noc(C)c1N=Nc1ccc2nonc2c1N`: the TGI with COLO 205 colon, in the assay on HCT-15 colon, with MCF7 breast, with PC-3 prostate, in the assay on RPMI-8226 leukemia and in the assay on RXF 393 renal was above 100 µM in each case. Besides, the TGI in the assay on SF-268 CNS, with SK-MEL-5 melanoma and in the assay on T-47D breast was above 100 µM throughout.

Turning to `CC(C(O)c1ccccc1)[N+](=O)[O-]` (stereo not drawn), the TGI in the assay on COLO 205 colon was 80 µM; with HCT-15 colon it was 43.4 µM; with MCF7 breast, 40.1 µM; in the assay with NCI-H522 lung, 22.9 µM; with PC-3 prostate, 45.3 µM; with RPMI-8226 leukemia, 47.5 µM. Besides, the TGI is 27.7 µM with RXF 393 renal, 95.5 µM in the assay on SF-268 CNS, 39.1 µM with SK-MEL-5 melanoma and 59.5 µM in the assay on T-47D breast.
